Converted amounts (≈) assume the structure as drawn.
Tests used:
HL-60 = test: Cytotoxicity against human HL60 cells; format: functional, cell-based
L1210 = test: Cytotoxicity against mouse L1210 cells; format: functional, cell-based
Mus musculus = test: Toxicity in ip dosed ddY mouse bearing mouse S180 cells; format: organism-based, CCRF S-180; conditions: in vivo
CCRF S-180 [1] = test: Antitumor activity against mouse S180 cells implanted in ip dosed ddY mouse assessed as tumor volume after 7 days; format: functional
[2] = biological target: Fumarate hydratase, mitochondrial (Sus scrofa, UniProt P10173); test: Inhibition of pig heart fumarase
Aspartase = Aspartase (Escherichia coli, UniProt Q59388); test: Inhibition of Escherichia coli aspartase
Proteus vulgaris = test: Antimicrobial activity against Proteus vulgaris OX19; format: functional
Bacillus subtilis [3] = test: Antimicrobial activity against Bacillus subtilis NRRL B-558; format: functional
Bacillus anthracis = test: Antimicrobial activity against Bacillus anthracis; format: functional
Providencia rettgeri [4] = test: Antimicrobial activity against Providencia rettgeri GN466; format: functional
[5] = test system: Mycolicibacterium smegmatis; test: Antimicrobial activity against rifamycin-resistant Mycobacterium smegmatis ATCC 607; format: functional
Providencia rettgeri [6] = test: Antimicrobial activity against Providencia rettgeri GN311; format: functional
[7] = test system: Salmonella enterica subsp. enterica; test: Antimicrobial activity against Salmonella enteritidis 1891; format: functional, Salmonella enterica subsp. enterica serovar Enteritidis
Escherichia coli [8] = test: Antimicrobial activity against Escherichia coli BEM11; format: functional
Staphylococcus aureus [9] = test: Antimicrobial activity against Staphylococcus aureus FDA209P; format: functional
Bacillus subtilis [10] = test: Antimicrobial activity against Bacillus subtilis PCI 219; format: functional
[11] = test system: Mycolicibacterium smegmatis; test: Antimicrobial activity against streptothricin-resistant Mycobacterium smegmatis ATCC 607; format: functional
[12] = test system: Mycolicibacterium smegmatis; test: Antimicrobial activity against Mycobacterium smegmatis ATCC 607; format: functional
Bacillus cereus = test: Antimicrobial activity against Bacillus cereus ATCC 10702; format: functional
Pseudomonas aeruginosa [13] = test: Antimicrobial activity against Pseudomonas aeruginosa A3; format: functional
Shigella dysenteriae = test: Antimicrobial activity against Shigella dysenteriae JS1 1910; format: functional
Staphylococcus aureus [14] = test: Antimicrobial activity against Staphylococcus aureus MS9610; format: functional
Mycolicibacterium vaccae = test: Antimicrobial activity against Mycobacterium vaccae ATCC 15483; format: functional
Staphylococcus aureus [15] = test: Antimicrobial activity against methicillin-resistant Staphylococcus aureus isolate 5; format: functional
Escherichia coli [16] = test: Antimicrobial activity against Escherichia coli K-12 MLI629; format: functional
Staphylococcus aureus [17] = test: Antimicrobial activity against methicillin-resistant Staphylococcus aureus isolate 17; format: functional
[18] = test system: Mycolicibacterium smegmatis; test: Antimicrobial activity against streptomycin-resistant Mycobacterium smegmatis ATCC 607; format: functional
[19] = test system: Mycolicibacterium smegmatis; test: Antimicrobial activity against paromomycin-resistant Mycobacterium smegmatis ATCC 607; format: functional
Micrococcus luteus [20] = test: Antimicrobial activity against Micrococcus luteus PCI 1001; format: functional
Klebsiella pneumoniae = test: Antimicrobial activity against Klebsiella pneumoniae PCI602; format: functional
[21] = test system: Mycolicibacterium smegmatis; test: Antimicrobial activity against capreomycin-resistant Mycobacterium smegmatis ATCC 607; format: functional
[22] = test system: Salmonella enterica subsp. enterica; test: Antimicrobial activity against Salmonella typhi T-63; format: functional, Salmonella enterica subsp. enterica serovar Typhi
Escherichia coli [23] = test: Antimicrobial activity against Escherichia coli BE1126; format: functional
Micrococcus luteus [24] = test: Antimicrobial activity against Micrococcus luteus FDA16; format: functional
Shigella flexneri = test: Antimicrobial activity against Shigella flexneri 4bJS11811; format: functional
Escherichia coli [25] = test: Antimicrobial activity against Escherichia coli K-12; format: functional
Micrococcus luteus [26] = test: Antimicrobial activity against Micrococcus luteus IFO 3333; format: functional
Staphylococcus aureus [27] = test: Antimicrobial activity against Staphylococcus aureus Smith; format: functional
Corynebacterium bovis = test: Antimicrobial activity against Corynebacterium bovis 1810; format: functional
Escherichia coli [28] = test: Antimicrobial activity against Escherichia coli NIHJ; format: functional
Escherichia coli [29] = test: Antimicrobial activity against Escherichia coli BE1186; format: functional
Proteus mirabilis = test: Antimicrobial activity against Proteus mirabilis IFM OM-9; format: functional
[30] = test system: Salmonella enterica subsp. enterica; test: Antimicrobial activity against Salmonella typhi JS11746; format: functional, Salmonella enterica subsp. enterica serovar Typhi
Pseudomonas aeruginosa [31] = test: Antimicrobial activity against Pseudomonas aeruginosa GN315; format: functional
CCRF S-180 [32] = test: Antitumor activity against mouse S180 cells xenografted in rat; format: functional
[33] = Antitumor activity against mouse mammary cancer cell implanted in C3H/An mouse assessed as inhibition of tumor growth at 0.5 mg/day for 14 days; format: functional, Cancer cell lines
HCT-116 = test: Cytotoxicity against human HCT116 cells; format: functional, cell-based

Fumarate hydratase, mitochondrial, sequence (P10173 whole entry): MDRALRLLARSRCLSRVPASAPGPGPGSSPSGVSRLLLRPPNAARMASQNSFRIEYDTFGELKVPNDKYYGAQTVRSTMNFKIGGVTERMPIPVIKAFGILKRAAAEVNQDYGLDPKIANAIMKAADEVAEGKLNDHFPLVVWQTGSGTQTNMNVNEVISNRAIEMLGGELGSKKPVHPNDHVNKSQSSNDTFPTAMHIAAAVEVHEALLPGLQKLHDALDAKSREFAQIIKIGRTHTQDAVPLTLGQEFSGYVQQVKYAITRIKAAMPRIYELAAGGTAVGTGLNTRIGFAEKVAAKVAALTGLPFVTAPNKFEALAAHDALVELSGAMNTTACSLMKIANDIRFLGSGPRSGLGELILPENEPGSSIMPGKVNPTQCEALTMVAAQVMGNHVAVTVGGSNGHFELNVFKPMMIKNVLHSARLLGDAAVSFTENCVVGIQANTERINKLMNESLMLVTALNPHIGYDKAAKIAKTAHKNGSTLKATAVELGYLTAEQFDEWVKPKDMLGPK
Aspartase, sequence (Q59388 whole entry): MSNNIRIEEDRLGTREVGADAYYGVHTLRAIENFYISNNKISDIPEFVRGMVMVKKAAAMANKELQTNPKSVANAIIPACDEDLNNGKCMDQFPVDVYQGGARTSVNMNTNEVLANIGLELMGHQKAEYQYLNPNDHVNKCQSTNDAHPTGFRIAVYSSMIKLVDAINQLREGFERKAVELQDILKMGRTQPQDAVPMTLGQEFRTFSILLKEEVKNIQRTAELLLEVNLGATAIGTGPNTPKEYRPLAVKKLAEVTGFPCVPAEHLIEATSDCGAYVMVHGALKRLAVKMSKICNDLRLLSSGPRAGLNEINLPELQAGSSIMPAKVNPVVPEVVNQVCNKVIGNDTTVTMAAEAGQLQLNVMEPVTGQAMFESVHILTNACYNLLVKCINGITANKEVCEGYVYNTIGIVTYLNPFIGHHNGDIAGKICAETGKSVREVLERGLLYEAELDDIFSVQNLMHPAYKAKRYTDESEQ

Structure (SMILES): NCCCCNCCCN1CC1
- IC50 (HL-60): 110 nM
- IC50 (L1210): 150 nM

Structure (SMILES): COC1=C(C)C(=O)C2=C(C1=O)[C@@H](COC(N)=O)[C@@]1(OC)[C@@H]3[C@H](CN21)N3C (some centres not stated) [N-METHYL-MITOMYCIN A]
- LD50 (Mus musculus): 5 µg/mL
- ED50 (CCRF S-180 [1]): 1.3 µg/mL (≈ 3.58 µM)

Structure (SMILES): O=C(O)[C@H]1N[C@@H]1C(=O)O
- Ki [2]: 80 nM
- Ki (Aspartase): 55000 nM

Structure (SMILES): NCCCNCCCCN1CC1
- IC50 (HL-60): 300 nM
- IC50 (L1210): 310 nM

Structure (SMILES): COc1c(O)cc2c(OC)c3c(c(O)c2c1O)C(=O)CC1CC(O)(C2CN2)CC(=O)C31O (configuration not stated) [AZICEMICIN B]
- MIC (Proteus vulgaris): 100 µg/mL (≈ 225 µM)
- MIC (Bacillus subtilis [3]): 100 µg/mL (≈ 225 µM)
- MIC (Bacillus anthracis): 100 µg/mL (≈ 225 µM)
- MIC (Providencia rettgeri [4]): 100 µg/mL (≈ 225 µM)
- MIC [5]: 25 µg/mL (≈ 56.1 µM)
- MIC (Providencia rettgeri [6]): 100 µg/mL (≈ 225 µM)
- MIC [7]: > 50 µg/mL
- MIC (Escherichia coli [8]): 100 µg/mL (≈ 225 µM)
- MIC (Staphylococcus aureus [9]): 100 µg/mL (≈ 225 µM)
- MIC (Bacillus subtilis [10]): 100 µg/mL (≈ 225 µM)
- MIC [11]: 25 µg/mL (≈ 56.1 µM)
- MIC [12]: 12.5 µg/mL (≈ 28.1 µM)
- MIC (Bacillus cereus): 100 µg/mL (≈ 225 µM)
- MIC (Pseudomonas aeruginosa [13]): > 50 µg/mL
- MIC (Shigella dysenteriae): 25 µg/mL (≈ 56.1 µM)
- MIC (Staphylococcus aureus [14]): 100 µg/mL (≈ 225 µM)
- MIC (Mycolicibacterium vaccae): 6.25 µg/mL (≈ 14 µM)
- MIC (Staphylococcus aureus [15]): 100 µg/mL (≈ 225 µM)
- MIC (Escherichia coli [16]): 100 µg/mL (≈ 225 µM)
- MIC (Staphylococcus aureus [17]): 100 µg/mL (≈ 225 µM)
- MIC [18]: 6.25 µg/mL (≈ 14 µM)
- MIC [19]: 6.25 µg/mL (≈ 14 µM)
- MIC (Micrococcus luteus [20]): 1.56 µg/mL (≈ 3.5 µM)
- MIC (Klebsiella pneumoniae): 100 µg/mL (≈ 225 µM)
- MIC [21]: 12.5 µg/mL (≈ 28.1 µM)
- MIC [22]: 100 µg/mL (≈ 225 µM)
- MIC (Escherichia coli [23]): 100 µg/mL (≈ 225 µM)
- MIC (Micrococcus luteus [24]): 6.25 µg/mL (≈ 14 µM)
- MIC (Shigella flexneri): 100 µg/mL (≈ 225 µM)
- MIC (Escherichia coli [25]): 100 µg/mL (≈ 225 µM)
- MIC (Micrococcus luteus [26]): 1.56 µg/mL (≈ 3.5 µM)
- MIC (Staphylococcus aureus [27]): 100 µg/mL (≈ 225 µM)
- MIC (Corynebacterium bovis): 6.25 µg/mL (≈ 14 µM)
- MIC (Escherichia coli [28]): 25 µg/mL (≈ 56.1 µM)
- MIC (Escherichia coli [29]): 100 µg/mL (≈ 225 µM)
- MIC (Proteus mirabilis): 100 µg/mL (≈ 225 µM)
- MIC [30]: 100 µg/mL (≈ 225 µM)
- MIC (Pseudomonas aeruginosa [31]): 100 µg/mL (≈ 225 µM)

Structure (SMILES): CC1(C)CC(C(=O)ONP(=O)(N2CC2(C)C)N2CC2(C)C)CC(C)(C)N1O (configuration not stated)
- Activity (CCRF S-180 [32]): 93%

Structure (SMILES): CC(=O)[C@H]1C(N2CC2)C[C@H]2[C@@H]3CCC4=CC(=O)CC[C@]4(C)[C@H]3CC[C@]12C (some centres not stated)
- inhibition (INH) [33]: 55%

Structure (SMILES): COC1=C(C)C(=O)C2=C(C1=O)[C@H](COC(N)=O)[C@@]1(O)[C@@H]3[C@H](CN21)N3C (some centres not stated) [MITOMYCIN B]
- LD50 (Mus musculus): 4.5 µg/mL
- ED50 (CCRF S-180 [1]): 2.5 µg/mL (≈ 7.16 µM)

Structure (SMILES): CC(=O)O[C@H]1CC[C@@]2(C)C(=CC[C@@H]3[C@@H]2CC[C@]2(C)C(=O)C(CN4CC4)C[C@@H]32)C1 (some centres not stated)
- inhibition (INH) [33]: 32%

Structure (SMILES): COC(=O)[C@@H]1N=C1/C=C/CCCCCCCCC/C=C(/Cl)Br
- IC50 (HCT-116): 15200 nM
